Where a name gives a salt, the structure may show the parent alone. Read-outs that look alike come from different tables or passages of the source. Each block holds one molecule with its values, some of them ahead of it.
Tests used:
[1] = tested on: HIV (HTLV-IIIB) in H9 cells; assay: Effect of compounds on HIV multiplication in H9 cells (Test I); format: cell-based, human immunodeficiency virus (HTLV-IIIB); conditions: 6-7 days, read-out: Concentration (μM) for 50% inhibition (IC50) of human immuno deficiency virus multiplication in cell culture
Procedure: Materials and Methods: HIV Infection of H9 Cells H9 cells, 10^5 cells per well on a 24 well plate, suspended in 2 ml RPMI-medium containing 10% fetal calf serum, 100 μg/ml pencillin, 10 μg/ml streptomycin sulfate and 2 μg/ml polybrene are exposed to HIV (HTLV-IIIB) and different concentrations of the test compounds. The plates are incubated at 37° C. in 5% CO2 for 6-7 days. The contents in each well is then homogenized with a pipette and transferred to a centrifuge tube. After centrifugation for 10 min at 1500 rpm the supernatant is removed and the cell pellet is analyzed by fixing in methanol on glass plates. Human HIV positive serum diluted 1:80 or 1:160 is added and incubated for 30 min at 37° C. The pate is then washed with phosphate-buffered saline (PBS) containing Ca2+ and Mg2+. Sheep antihuman conjugate (FITC) is added and after a new incubation the plate is again washed with PBS. Contrast staining is done with Evans blue and after drying the frequency of HIV antigen containing cells is determined in a microscope.

[2] = Oral bioavailability in monkey (Test III); format: in vivo, cynomologous monkeys
Procedure: (§1) TEST III--ORAL BIOAVAILABILITY
(§2) Oral bioavailability was determined by dosing the animals (cynomologous monkeys and rats) intravenously and orally on separate occasions with the compounds. Blood samples were taken after appropriate intervals for determination of drug level in plasma. Appropriate pharmacokinetic calculations were then carried out based on plasma concentration against time relationship.

[3] = Cellular toxicity, inhibition of H9 cell multiplication (Test II); format: cell-based; conditions: human, H9 cells
Procedure: (§3) Test II--Cellular Toxicity
H9 cells, 2×10^7 cells per plate, are incubate in RPMI-1640 medium containing 10% fetal calf serum, 70 mg/l penicillin, 100 mg/l streptomycin and 10 mM hepes, in absence or presence of test compounds. The number of cells per plate is determined after 48 h. Cells incubated in the absence of test compounds then underwent two cell division cycles.
(§4) F5000 cells, which are human embryo cells, 1×10^5 cells per plate, are incubated in Eagle's minimal essential medium, supplemented with Earle's salts, non-essential amino acids, 10% fetal calf serum, 10 mM hepes, 70 mg/l penicillin and 100 mg/l streptomycin, in absence or presence of test compounds. The number of cells per plate is determined after 48 h. Cells incubated in the absence of test compounds underwent one cell division cycle.

[4] = Cellular toxicity, inhibition of F5000 cell multiplication (Test II); format: cell-based; conditions: human, f5000 cells
Procedure: as §3, §4

[5] = Oral bioavailability in rat (Test III); format: in vivo; conditions: for plasma concentration of VSA 671 after VSA 671 has been given as 6-deoxy prodrug or ester: in words
Procedure: as §1, §2

[6] = Human immunodeficiency virus 1, IIIB, H9, H9 cells
[7] = plasma AUC relative to AUC after intravenously given VSA 671, read-out: Oral bioavailability F of compound determined as VSA 671

IC50 [1, 6]: 1 to 10 µM | bioavailability [2, 7]: 10% | bioavailability [5, 7]: 11%
SMILES: Nc1nc2c(ncn2CC(CO)CCO)c(=O)[nH]1 (racemic) [VSA 671, 9-[4-hydroxy-2-(hydroxymethyl)butyl]guanine]
inhibition at 48 h, 500 µM ([3]; 500 μM): 55% | inhibition at 48 h, 1000 µM ([4]; 1000 μM): 55%

IC50 ([1]; H9 cells): 1 to 5 µM
SMILES: Nc1nc2c(ncn2CC(CO)CCO)c(=O)[nH]1 (single isomer, unassigned; (+)) [VSB 648, (+)-9-[4-hydroxy-2(hydroxymethyl)butyl]-guanine]

IC50 ([1]; H9 cells): 0.1 to 7 µM
SMILES: Nc1nc2c(ncn2CC(CO)CCO)c(=O)[nH]1 (single isomer, unassigned; (-)) [VSB 647, (-)-9-(4-Hydroxy-2-hydroxymethylbutyl)guanine]
inhibition at 48 h, 100 µM ([3]; 100 μM): 5%

plasma concentration of VSA 671 after VSA 671 has been given as 6-deoxy prodrug or ester [5]: significantly increased
SMILES: Nc1ncc2ncn(CC(CO)CCO)c2n1 (stereo not drawn) [VSB 212, 2-(2-Aminopurin-9yl)methyl butan-1,4-diol]

IC50 [1, 6]: 10 µM
SMILES: Nc1ncnc2c1ncn2CC(CO)CCO (stereo not drawn) [VSC 600, 9-(4-Hydroxy-2-hydroxymethylbutyl)adenine]
inhibition at 48 h, 200 µM ([3]; 200 μM): 25% | inhibition at 48 h, 500 µM ([4]; 500 μM): 25%

plasma concentration of VSA 671 after VSA 671 has been given as ester of 6-deoxy prodrug ([2]; in words): significantly increased
SMILES: CC(=O)OCCC(COC(C)=O)Cn1cnc2cnc(N)nc21 (stereo not drawn) [VSC 610, 2-(2-Aminopurin-9-yl)methylbutane-1,4-diol diacetate]

SMILES: CC(=O)OCCC(COC(C)=O)Cn1cnc2c(=O)[nH]c(N)nc21 (stereo not drawn) [VSC 640, 9-[4-acetoxy-2-(acetoxymethyl)butyl]guanine.HCl]
plasma concentration of VSA 671 after VSA 671 has been given as 6-deoxy prodrug or ester [5]: significantly increased

plasma concentration of VSA 671 after VSA 671 has been given as 6-deoxy prodrug or ester [5]: significantly increased
SMILES: CCC(=O)OCCC(COC(=O)CC)Cn1cnc2c(=O)[nH]c(N)nc21 (stereo not drawn) [VSC 641, 9-[4-propionoxy-2-(propionoxymethyl)butyl]guanine.HCl]

From patent US5284837A, “Derivatives of purine, process for their preparation and a pharmaceutical preparation” (Medivir AB, priority 1988, dated 1994)
